Experimental data taken from patent publication US20220280508A1 (priority 2019, published 2022).
“Also recorded” adds a separate entry of the source. Marks after values point to notes of the source that are not given here.

Tests used:
PR8 influenza virus = conditions: mouse, in vivo
influenza = conditions: human, in vivo
iNOS = assay type: cell-based, Mouse
HSV-1 = assay type: in vivo, Kunming mice; conditions: n 15
Streptococcus pneumoniae = assay type: in vivo, ICR mice; conditions: n = 10
Staphylococcus aureus = assay type: in vivo, ICR mice; conditions: n = 10
[1] = system: Mycoplasma pneumoniae (ATCCFH15531); assay type: in vivo, BALB/C mice
Pseudomonas aeruginosa = assay type: in vivo, BAL B/C male mice; conditions: 14 days

6S-5-methyltetrahydrofolate calcium
secretion of NO in macrophages (Macrophage RAW264.7): promote the secretion of NO
condition of the administration group (body weight, body temperature, food intake, water intake, survival curves) (PR8 influenza virus): greatly improved
Mean disappearance time: Cough (influenza): 35.7 h
Mean disappearance time: Dizziness and fullness in head (influenza): 28.5 h
Mean disappearance time: Dry and itchy throat (influenza): 15.0 h
Mean disappearance time: Fatigue (influenza): 14.1 h
Mean disappearance time: Headache (influenza): 13.7 h
Mean disappearance time: Inappetence (influenza): 13.0 h
Mean disappearance time: Intolerance of cold and cold limbs (influenza): 10.0 h
Mean disappearance time: Low fever (influenza): 10.0 h
Mean disappearance time: Muscular soreness (influenza): 14.9 h
Mean disappearance time: Nasal stuffiness (influenza): 23.0 h
Mean disappearance time: Running nose (influenza): 20.6 h
Mean disappearance time: Sneezing (influenza): 18.1 h
Mean disappearance time: Sore throat (influenza): 29.4 h
Mean time: Basic rehabilitation (influenza): 27.4 h
Mean time: Complete rehabilitation (influenza): 32.9 h
disappearance time of symptoms: Dry and itchy throat (influenza): 15 h
disappearance time of symptoms: Inappetence (influenza): 13 h
disappearance time of symptoms: Intolerance of cold and cold limbs (influenza): 10 h
disappearance time of symptoms: Low fever (influenza): 10 h
time in which the patients' influenza almost all healed (influenza): ≤ 2 days
expression of macrophages and inflammatory factors induced by LPS (TNF-α, IL-1α, IL-6): no significant effect
expression of iNOS in macrophages induced by LPS (iNOS): did not affect expression of iNOS; also recorded: almost no effect

Nc1nc2c(ncn2COCCO)c(=O)[nH]1 [Acyclovir, acyclovir]
Mortality (HSV-1): 60%
Number of deaths, 48 h (HSV-1): 0
Number of deaths, D4 (HSV-1): 4
Number of deaths, D7 (HSV-1): 5

CC1(C)S[C@@H]2[C@H](NC(=O)[C@H](N)c3ccc(O)cc3)C(=O)N2[C@H]1C(=O)O [Amoxicillin, amoxicillin]
Survival rate, Streptococcus pneumoniae (Streptococcus pneumoniae): 50* %
Survival rate, Staphylococcus aureus (Staphylococcus aureus): 70** %

NC(=O)c1ccc[n+]([C@@H]2O[C@H](COP(=O)([O-])O)[C@@H](O)[C@H]2O)c1 [NMN, nicotinamide mononucleotide]
expression of iNOS in macrophages induced by LPS (iNOS): did not affect expression of iNOS; also recorded: almost no effect

CC[C@H]1OC(=O)[C@H](C)[C@@H](O[C@H]2C[C@@](C)(OC)[C@@H](O)[C@H](C)O2)[C@H](C)[C@@H](O[C@@H]2O[C@H](C)C[C@H](N(C)C)[C@H]2O)[C@](C)(O)C[C@@H](C)CN(C)[C@H](C)[C@@H](O)[C@]1(C)O [azithromycin]
Histopathological examination of the lung tissue ([1]; 10 days): Mild interstitial pneumonia
Splenic index ([1]; mouse, in vivo): 4.515 ± 0.982 mg/g
Thymic index ([1]; mouse, in vivo): 3.818 ± 1.232 mg/g

O=C1O[C@H]([C@@H](O)CO)C(=O)C1=O [dehydroascorbic acid]
expression of iNOS in macrophages induced by LPS (iNOS): almost no effect

N[C@@H](CCC(=O)N[C@@H](CS)C(=O)NCC(=O)O)C(=O)O [glutathione, reference compound]
expression of iNOS in macrophages induced by LPS (iNOS): did not affect expression of iNOS; also recorded: almost no effect

C[C@@H](O)[C@H]1C(=O)N2C(C(=O)O)=C(S[C@@H]3CN[C@H](C(=O)N(C)C)C3)[C@H](C)[C@H]12 [meropenem]
survival of mice infected with the fatal dose of Pseudomonas aeruginosa (Pseudomonas aeruginosa): 100%

penicillin
survival of mice infected with the fatal dose of Pseudomonas aeruginosa (Pseudomonas aeruginosa): all the mice in the penicillin group died
